{"source": "patent US9232796B2", "about": "“Herbicidal compositions comprising 4-amino-3-chloro-5-fluoro-6-(4-chloro-2-fluoro-3-methoxyphenyl) pyridine-2-carboxylic acid or a derivative thereof and acetyl-CoA carboxylase (ACCase) inhibitors” (DOW AGROSCIENCES LLC, priority 2012, dated 2016)", "key": {"ECHCG [1]": {"test_system": "ECHCG", "test": "Example VI in-water applied ternary mixtures, greenhouse, transplanted paddy rice weeds", "type": "in vivo, Echinochloa crus-galli (L.) Beauv.", "description": "(§1) Weed seeds or nutlets of the desired test plant species were planted in puddled soil (mud) prepared by mixing a shredded, non-sterilized mineral soil (50.5 percent silt, 25.5 percent clay, and 24 percent sand, with a pH of about 7.6 and an organic matter content of about 2.9 percent) and water at a 1:1 volumetric ratio. The prepared mud was dispensed in 365 mL aliquots into 16-ounce (oz.) non-perforated plastic pots with a surface area of 86.59 square centimeters (cm^2) leaving a headspace of 3 centimeters (cm) in each pot. Mud was allowed to dry overnight prior to planting or transplanting. Rice seeds were planted in Sun Gro MetroMix® 306 planting mixture, which typically has a pH of 6.0 to 6.8 and an organic matter content of about 30 percent, in plastic plug trays. Seedlings at the second or third leaf stage of growth were transplanted into 860 mL of mud contained in 32-oz. non-perforated plastic pots with a surface area of 86.59 cm^2 4 days prior to herbicide application. The paddy was created by filling the headspace of the pots with 2.5 to 3 cm of water. When required to ensure good germination and healthy plants, a fungicide treatment and/or other chemical or physical treatment was applied. The plants were grown for 4-22 days in a greenhouse with an approximate 14 hr. photoperiod which was maintained at about 29° C. during the day and 26° C. during the night. Nutrients were added as Osmocote® (19:6:12, N:P:K+minor nutrients) at 2 g per 16-oz. pot and 4 g per 32-oz. pot. Water was added on a regular basis to maintain the paddy flood, and supplemental lighting was provided with overhead metal halide 1000-Watt lamps as necessary. The plants were employed for testing when they reached the first through fourth true leaf stage.\n(§2) Treatments consisted of the benzyl ester of 4-amino-3-chloro-5-fluoro-6-(4-chloro-2-fluoro-3-methoxy-phenyl)pyridine-2-carboxylic acid (Compound A), formulated as an SC (suspension concentrate), an ACCase inhibitor herbicide, and a third herbicidal component, each applied alone and in ternary combination. Forms of compound A were applied on an acid equivalent basis.\n(§3) The ACCase inhibitor component was applied on an active ingredient basis and included cyhalofop-R-butyl formulated as Clincher® G and metamifop formulated as Metamifop EC. Other herbicidal components were applied on an active ingredient or acid equivalent basis depending on the compound and included penoxsulam formulated as Grasp® SC, bentazon sodium formulated as Basagran®, triclopyr […] (TEA) salt formulated as Grandstand® R, benzobicyclon formulated as Benzobicyclon, benfuresate formulated as Full Slot® WG, pyraclonil formulated as Pyraclon® Flowable, mefenacet (technical grade material), and pretilachlor (technical grade material).\n(§4) Treatment requirements for each compound or herbicidal component were calculated based upon the rates being tested, the concentration of active ingredient or acid equivalent in the formulation, an application volume of 1 mL per component per pot, and an application area of 86.59 cm^2 per pot.\n(§5) For formulated compounds, a measured amount was placed in an individual 100 or 200 mL glass vial and was dissolved in a volume of 1.25% (v/v) Agri-Dex® crop oil concentrate to obtain application solutions.\n(§6) For technical grade compounds, a weighed amount was placed in an individual 100 to 200 mL glass vial and was dissolved in a volume of acetone to obtain concentrated stock solutions.\n(§7) Applications were made by injecting with a pipetter appropriate amounts of the application solutions, into the aqueous layer of the paddy. Control plants were treated in the same manner with the solvent blank. Applications were made so that all treated plant material received the same concentrations of acetone and crop oil concentrate.\n(§8) The treated plants and control plants were placed in a greenhouse as described above and water was added as needed to maintain a paddy flood. […]"}, "ECHCG [2]": {"test_system": "ECHCG", "test": "Example V (second) postemergence foliar-applied ternary mixtures, greenhouse, direct seeded rice weeds", "type": "in vivo, Echinochloa crus-galli (L.) Beauv.", "conditions": "200 gai/ha", "description": "Seeds or nutlets of the desired test plant species were planted in a soil matrix prepared by mixing a sandy loam or loam soil (e.g., 32 percent silt, 23 percent clay, and 45 percent sand, with a pH of about 6.5 and an organic matter content of about 1.9 percent) and calcareous grit in an 80 to 20 ratio. The soil matrix was contained in plastic pots with a volume of 1 quart and a surface area of 83.6 square centimeters (cm^2). When required to ensure good germination and healthy plants, a fungicide treatment and/or other chemical or physical treatment was applied. The plants were grown for 8-22 days in a greenhouse with an approximate 14 hr. photoperiod which was maintained at about 29° C. during the day and 26° C. during the night. Nutrients (Peters Excel® 15-5-15 5-Ca 2-Mg and iron chelate) were applied in the irrigation solution as needed and water was added on a regular basis. Supplemental lighting was provided with overhead metal halide 1000-Watt lamps as necessary. The plants were employed for testing when they reached the first through fourth true leaf stage.\nas §2, with “inhibitor,” for “inhibitor herbicide,”\nThe ACCase inhibitor component was applied on an active ingredient basis and included cyhalofop-R-butyl formulated as Clincher® SF, fenoxaprop-p-ethyl formulated as RiceStar® HT, and profoxydim formulated as Aura® 20EC. Other herbicidal components were applied on an active ingredient or acid equivalent basis depending on the compound and included penoxsulam formulated as Grasp® SC, bentazon sodium formulated as Basagran®, triclopyr […] (TEA) salt formulated as Grandstand® R, bispyribac sodium formulated as Regiment® 80WP, imazamox ammonium formulated as Beyond®, benzobicyclon, quinclorac formulated as Facet® 75DF, glyphosate dimethylammonium (DMA) salt formulated as Durango® DMA, glufosinate ammonium formulated as Ignite® 280, fentrazamide formulated as an emulsifiable concentrate (EC), propyrisulfuron formulated as Zeta One®, and indanofan (technical grade material).\n(§9) Treatment requirements were calculated based upon the rates being tested, the concentration of active ingredient or acid equivalent in the formulation, and a 12 mL application volume at a rate of 187 L/ha.\n(§10) For treatments comprised of formulated compounds, measured amounts of compounds were placed individually in 25 mL glass vials and diluted in a volume of 1.25% (v/v) Agri-Dex® crop oil concentrate to obtain 12× stock solutions. […] Application solutions were prepared by adding an appropriate amount of each stock solution (e.g., 1 mL) and diluted to the appropriate final concentrations with the addition of 9 mL of an aqueous mixture of 1.25% (v/v) crop oil concentrate so that the final spray solutions contained 1.25% (v/v) crop oil concentrate.\nAs required, additional water and/or 97:3 v/v acetone/DMSO was added to individual application solutions so that the final acetone and DMSO concentrations of the application solutions being compared were 8.1% and 0.25%, respectively.\nAll stock solutions and applications solutions were visually inspected for compound compatibility prior to application. Spray solutions were applied to the plant material with an overhead Mandel track sprayer equipped with a 8002E nozzles calibrated to deliver 187 L/ha over an application area of 0.503 m^2 at a spray height of 18 inches (46 cm) above average plant canopy height. Control plants were sprayed in the same manner with the solvent blank.\nThe treated plants and control plants were placed in a greenhouse as described above and watered by sub-irrigation to prevent wash-off of the test compounds. […]"}, "IPOHE": {"test_system": "IPOHE", "test": "Example V (second) postemergence foliar-applied ternary mixtures, greenhouse, direct seeded rice weeds", "type": "in vivo, Ipomoea hederacea Jacq.", "description": "(§11) The treated plants and control plants were placed in a greenhouse as described above and watered by sub-irrigation to prevent wash-off of the test compounds. After approximately 3 weeks, the condition of the test plants as compared with that of the untreated plants was determined visually and scored on a scale of 0 to 100 percent where 0 corresponds to no injury or growth inhibition and 100 corresponds to complete kill.\nColby's equation was used to determine the herbicidal effects expected from the mixtures (Colby, S. R. 1967. Calculation of the synergistic and antagonistic response of herbicide combinations. Weeds 15:20-22.).\nThe following equation was used to calculate the expected activity of mixtures containing three active ingredients, A, B, and C: Expected=A+B+C−((A×B+A×C+B×C)/100)+(A×B×C/10000)"}, "FIMMI": {"test_system": "FIMMI", "test": "Example VI in-water applied ternary mixtures, greenhouse, transplanted paddy rice weeds", "type": "in vivo, Fimbristylis miliacea (L.) Vahl", "description": "as §1, §2, §3, §4, §5, §6, §7, §8"}, "CYPIR": {"test_system": "CYPIR", "test": "Example I postemergence foliar-applied, greenhouse, direct seeded rice weeds", "type": "in vivo, Cyperus iria L.", "description": "Seeds or nutlets of the desired test plant species were planted in a soil matrix prepared by mixing a loam or sandy loam soil (e.g., 28.6 percent silt, 18.8 percent clay, and 52.6 percent sand, with a pH of about 5.8 and an organic matter content of about 1.8 percent) and calcareous grit in an 80 to 20 ratio. The soil matrix was contained in plastic pots with a volume of 1 quart and a surface area of 83.6 square centimeters (cm^2). When required to ensure good germination and healthy plants, a fungicide treatment and/or other chemical or physical treatment was applied. The plants were grown for 8-22 days in a greenhouse with an approximate 14 hr. photoperiod which was maintained at about 29° C. during the day and 26° C. during the night. Nutrients (Peters Excel® 15-5-15 5-Ca 2-Mg and iron chelate) were applied in the irrigation solution as needed and water was added on a regular basis. Supplemental lighting was provided with overhead metal halide 1000-Watt lamps as necessary. The plants were employed for testing when they reached the first through fourth true leaf stage.\nTreatments consisted of the acid or esters of 4-amino-3-chloro-5-fluoro-6-(4-chloro-2-fluoro-3-methoxy-phenyl)pyridine-2-carboxylic acid (Compound A), each formulated as an SC (suspension concentrate), and various herbicidal components alone and in combination.\nOther herbicidal components were applied on an acid equivalent (ae) or active ingredient (ai) basis and included acetyl coA carboxylase (ACCase)-inhibiting herbicides (cyclohexanedione and aryloxyphenoxypropionate chemical classes) cyhalofop-butyl formulated as Clincher® SF (285 gr ai/L EC), diclofop-methyl formulated as Hoelon® 3EC, fenoxaprop-p-ethyl+isoxadifen-ethyl formulated as RiceStar® HT (0.58 lb./gal EC), fenoxaprop-p-ethyl+mefenpyr diethyl formulated as Puma® IEC, metamifop formulated as Metamifop EC, haloxyfop-methyl formulated as Gallant Super®, fluazifop-p-butyl formulated as Fusilade® DX, quizalofop-p-ethyl formulated as Assure® II, profoxydim formulated as Aura® 20EC, clethodim applied as Intensity®, sethoxydim formulated as Poast®, and tralkoxydim formulated as Achieve®.\nas §9\nas §10, with “crop oil concentrated to obtain” for “crop oil concentrate to obtain”, “addition of 10 mL of” for “addition of 9 mL of”, “solutions contained 1.25+/−0.05% (v/v) crop” for “solutions contained 1.25% (v/v) crop”\nAll stock solutions and applications solutions were visually inspected for compound compatibility prior to application. Spray solutions were applied to the plant material with an overhead Mandel track sprayer equipped with a 8002E nozzles calibrated to deliver 187 L/ha over an application area of 0.503 m^2 at a spray height of 18 to 20 inches (46 to 50 cm) above average plant canopy height. Control plants were sprayed in the same manner with the solvent blank.\nas §11, with “kill. […]” for “kill.”"}, "CYPRO": {"test_system": "CYPRO", "test": "Example VI in-water applied ternary mixtures, greenhouse, transplanted paddy rice weeds", "type": "in vivo, Cyperus rotundus L.", "conditions": "21 DAA", "description": "as §1, §2, §3, §4, §5, §6, §7, §8"}}, "data": [{"smiles": "CCS(=O)(=O)Oc1ccc2c(c1)C(C)(C)CO2", "note": "[Benfuresate]", "values": [{"measurement": "Visual Weed Control (%) - 21 DAA ECHCG Obs", "setting": "ECHCG [1]; 150 gai/ha", "value": 0, "unit": "%"}]}, {"smiles": "CS(=O)(=O)c1ccc(C(=O)C2=C(Sc3ccccc3)C3CCC(C3)C2=O)c(Cl)c1", "note": "(stereo not shown) [Benzobicyclon]", "values": [{"measurement": "Visual Weed Control (%) - 21 DAA ECHCG Obs", "setting": "ECHCG [2]", "value": 0, "unit": "%"}, {"measurement": "Visual Weed Control (%) - 21 DAA IPOHE Obs", "setting": "IPOHE; 200 gai/ha", "value": 55, "unit": "%"}]}, {"smiles": "CC(C)N1C(=O)c2ccccc2NS1(=O)=O", "note": "[Bentazon Sodium]", "values": [{"measurement": "Visual Weed Control (%) - 21 DAA ECHCG Obs", "setting": "ECHCG [1]; 210 gae/ha, first set", "value": 0, "unit": "%"}, {"measurement": "Visual Weed Control (%) - 21 DAA ECHCG Obs", "setting": "ECHCG [1]; 420 gae/ha, second set", "value": 15, "unit": "%"}, {"measurement": "Visual Weed Control (%) - 21 DAA FIMMI Obs", "setting": "FIMMI; 210 gae/ha, first set", "value": 17, "unit": "%"}, {"measurement": "Visual Weed Control (%) - 21 DAA FIMMI Obs", "setting": "FIMMI; 420 gae/ha, second set", "value": 30, "unit": "%"}]}, {"smiles": "CC(C)N1C(=O)c2ccccc2NS1(=O)=O", "note": "[Bentazon sodium]", "values": [{"measurement": "Visual Weed Control (%) - 21 DAA IPOHE Obs", "setting": "IPOHE; 420 gae/ha, lower sub-table", "value": 75, "unit": "%"}, {"measurement": "Visual Weed Control (%) - 21 DAA IPOHE Obs", "setting": "IPOHE; 420 gae/ha, upper sub-table", "value": 53, "unit": "%"}]}, {"smiles": "COC(=O)C(C)Oc1ccc(Oc2ccc(Cl)cc2Cl)cc1", "note": "(stereo not shown) [Diclofop-methyl, methyl 2-[4-(2,4-dichlorophenoxy)phenoxy]propanoate]", "values": [{"measurement": "Visual Weed Control (%) - 22 DAA CYPIR Obs", "setting": "CYPIR; 280 gai/ha", "value": 0, "unit": "%"}, {"measurement": "Visual Weed Control (%) - 22 DAA CYPIR Obs", "setting": "CYPIR; 560 gai/ha", "value": 0, "unit": "%"}, {"measurement": "Visual Weed Control (%) - 22 DAA CYPIR Obs", "setting": "CYPIR; 1120 gai/ha", "value": 0, "unit": "%"}]}, {"smiles": "CN(C(=O)COc1nc2ccccc2s1)c1ccccc1", "note": "[Mefenacet]", "values": [{"measurement": "Visual Weed Control (%) - 21 DAA CYPRO Obs", "setting": "CYPRO; Table 69, 75 gai/ha", "value": 0, "unit": "%"}, {"measurement": "Visual Weed Control (%) - 21 DAA CYPRO Obs", "setting": "CYPRO; Table 69, 150 gai/ha", "value": 0, "unit": "%"}]}, {"smiles": "CCCOCCN(C(=O)CCl)c1c(CC)cccc1CC", "note": "[Pretilachlor]", "values": [{"measurement": "Visual Weed Control (%) - 21 DAA CYPRO Obs", "setting": "CYPRO; Table 70, 25 gai/ha", "value": 0, "unit": "%"}, {"measurement": "Visual Weed Control (%) - 21 DAA CYPRO Obs", "setting": "CYPRO; Table 70, 50 gai/ha", "value": 0, "unit": "%"}]}]}
